Columns and labels:
[1] = tested on: human SCLC tumor xenografts; experiment: Antitumor activity in human SCLC tumor xenografts; format: in vivo, mice
[2] = Physical appearance of SDC-TRAP-0063 formulations and infusion solutions with different diluents and carbonate buffers; format: physicochemical; details: for Observations (physical appearance): 5% v/v DMSO
Protocol: First, a stock solution of SDC-TRAP-0063 was prepared in DMSO at 22 mg/mL, then the required amount of tween 80 was added and mixed well.
The above formulation containing SDC-TRAP-0063 was diluted using either D5W, D5W (pH 10.5, adjusted with 4.55 mM NaOH) or carbonate buffer, pH 10) (final drug concentration.: 1 mg/mL SDC-TRAP-0063, 1.8% v/v Tween 80, 5% v/v DMSO). The physical observations on these solutions were noted before and filtration through 0.22μ PES filter and were further observed for 3 hr. Refer to the table below for summary of observations. Note: Carbonate buffer, pH 10 was prepared by mixing 0.1M sodium carbonate (27.5 mL) and 0.1M sodium bicarbonate (22.5 mL) and qs 200 mL with DIW. The total Na content of carbonate buffer was 39 mM.
A stock solution of SDC-TRAP-0063 was prepared in either DMSO or PEG-300. To prepare formulations containing DMSO and tween 80, required amount of tween 80 added to the stock of DMSO (containing SDC-TRAP-0063). The formulations were then was diluted with carbonate buffer, pH 10 (composition: add and mix 0.1M sodium carbonate (27.5 mL) and 0.1M sodium bicarbonate (22.5 mL) and qs 200 mL with DIW). The samples (prepared in glass vial) were mixed well and observed for physical appearance while stirring on a magnetic stirring plate at ambient. (Note-appropriate amounts of SDC-TRAP-0063, tween 80, DMSO and PEG-300, as applicable were used to prepare the solutions at the desired concentrations and drug concentrations at 1 mg/mL through 5 mg/mL as shown).
Carbonate buffers of different pH (pH 9-10) and ionic strengths (with higher (>2) Na contents that SDC-TRAP-0063 on molar basis) were prepared and used for diluting the DMSO/tween 80 formulation loaded with SDC-TRAP-0063 (as described in earlier section 3). The final concentrations of DMSO and tween 80 in the diluted carbonate buffer were 5% v/v and 1.8% v/v respectively. The drug concentration was kept constant (5 mg/mL) for all diluted samples.

In the case of `CCc1c2c(nc3ccc(OC(=O)N4CCC(CCn5ccc6cc(-n7c(O)nnc7-c7cc(C(C)C)c(O)cc7O)ccc65)CC4)cc13)-c1cc3c(c(=O)n1C2)COC(=O)[C@]3(O)CC` [SDC-TRAP-0063, 4,11-diethyl-4-hydroxy-3,14-dioxo-3,4,12,14-tetrahydro-1H-pyrano[3′,4′:6,7]indolizino[1,2-b]quinolin-9-yl 4-(2-(5-(3-(2,4-dihydroxy-5-isopropylphenyl)-5-hydroxy-4H-1,2,4-triazol-4-yl)-1H-indol-1-yl)ethyl)piperidine-1-carboxylate], the tolerability ([1]; SCLC xenografts) is reported as “very well tolerated”, the “antitumor activity in SCLC xenografts (FIG. 19)” value ([1]; once weekly for three weeks, then drug-free period, SDC-TRAP-0063 100 and 150 mg/kg) is reported as “remarkable and durable antitumor activity compared with irinotecan or ganetespib plus irinotecan” and the “physical appearance of stock solution” value ([2]; 22 mg/mL in DMSO, and after addition of tween 80) is reported as “clear and homogenous”. For the same molecule, the “physical appearance after dilution with carbonate buffer, pH 10” value ([2]; 5% v/v DMSO + […] v/v tween 80, 1-5 mg/mL) was “clear at 2 hr of stirring”, the “Observations (physical appearance)” value ([2]; […] v/v Tween 80, carbonate buffer pH 10 (39 mM Na), 1 mg/mL, 30 min) was “Clear” and the “Observations (physical appearance)” value ([2]; […] v/v Tween 80, carbonate buffer pH 10 (39 mM Na), 1 mg/mL, 1 h) was “Clear”. For the same molecule, the “Observations (physical appearance)” value ([2]; […] v/v Tween 80, carbonate buffer pH 10 (39 mM Na), 1 mg/mL, 2 h) was “Clear”, the “Observations (physical appearance)” value ([2]; […] v/v Tween 80, carbonate buffer pH 10 (39 mM Na), 1 mg/mL, Initial) was “Clear” and the “Observations (physical appearance)” value ([2]; […] v/v Tween 80, carbonate buffer pH 10 (39 mM Na), 1 mg/mL, Overnight) was “Clear”. The “Observations (physical appearance)” value ([2]; […] v/v Tween 80, carbonate buffer pH 10 (39 mM Na), 2 mg/mL, 30 min) was “Clear”, the “Observations (physical appearance)” value ([2]; […] v/v Tween 80, carbonate buffer pH 10 (39 mM Na), 2 mg/mL, 1 h) was “Clear” and the “Observations (physical appearance)” value ([2]; […] v/v Tween 80, carbonate buffer pH 10 (39 mM Na), 2 mg/mL, 2 h) was “Clear”. For the same molecule, the “Observations (physical appearance)” value ([2]; […] v/v Tween 80, carbonate buffer pH 10 (39 mM Na), 2 mg/mL, Initial) was “Clear”, the “Observations (physical appearance)” value ([2]; […] v/v Tween 80, carbonate buffer pH 10 (39 mM Na), 2 mg/mL, Overnight) was “Clear” and the “Observations (physical appearance)” value ([2]; […] v/v Tween 80, carbonate buffer pH 10 (39 mM Na), 3 mg/mL, 30 min) was “Cloudy”. The “Observations (physical appearance)” value ([2]; […] v/v Tween 80, carbonate buffer pH 10 (39 mM Na), 3 mg/mL, 1 h) was “Clear”, the “Observations (physical appearance)” value ([2]; […] v/v Tween 80, carbonate buffer pH 10 (39 mM Na), 3 mg/mL, 2 h) was “Clear” and the “Observations (physical appearance)” value ([2]; […] v/v Tween 80, carbonate buffer pH 10 (39 mM Na), 3 mg/mL, Initial) was “Cloudy”. For the same molecule, the “Observations (physical appearance)” value ([2]; […] v/v Tween 80, carbonate buffer pH 10 (39 mM Na), 3 mg/mL, Overnight) was “Clear”, the “Observations (physical appearance)” value ([2]; […] v/v Tween 80, carbonate buffer pH 10 (39 mM Na), 4 mg/mL, 30 min) was “Cloudy” and the “Observations (physical appearance)” value ([2]; […] v/v Tween 80, carbonate buffer pH 10 (39 mM Na), 4 mg/mL, 1 h) was “Cloudy”. The “Observations (physical appearance)” value ([2]; […] v/v Tween 80, carbonate buffer pH 10 (39 mM Na), 4 mg/mL, 2 h) was “Clear”, the “Observations (physical appearance)” value ([2]; […] v/v Tween 80, carbonate buffer pH 10 (39 mM Na), 4 mg/mL, Initial) was “Cloudy” and the “Observations (physical appearance)” value ([2]; […] v/v Tween 80, carbonate buffer pH 10 (39 mM Na), 4 mg/mL, Overnight) was “Clear”. For the same molecule, the “Observations (physical appearance)” value ([2]; […] v/v Tween 80, carbonate buffer pH 10 (39 mM Na), 5 mg/mL, 30 min) was “Cloudy”, the “Observations (physical appearance)” value ([2]; […] v/v Tween 80, carbonate buffer pH 10 (39 mM Na), 5 mg/mL, 1 h) was “Cloudy” and the “Observations (physical appearance)” value ([2]; […] v/v Tween 80, carbonate buffer pH 10 (39 mM Na), 5 mg/mL, 2 h) was “Clear”. For the same molecule, the “Observations (physical appearance)” value ([2]; […] v/v Tween 80, carbonate buffer pH 10 (39 mM Na), 5 mg/mL, Initial) was “Cloudy”, the “Observations (physical appearance)” value ([2]; […] v/v Tween 80, carbonate buffer pH 10 (39 mM Na), 5 mg/mL, Overnight) was “Clear” and the “Observations (physical appearance)” value ([2]; […] v/v Tween 80, 5 mg/mL, Carbonate buffer, pH 9.2 (25 mM Na), 1 h) was “Cloudy”. For the same molecule, the “Observations (physical appearance)” value ([2]; […] v/v Tween 80, 5 mg/mL, Carbonate buffer, pH 9.2 (25 mM Na), 2 h) was “Cloudy”, the “Observations (physical appearance)” value ([2]; […] v/v Tween 80, 5 mg/mL, Carbonate buffer, pH 9.2 (25 mM Na), 3 h) was “Cloudy” and the “Observations (physical appearance)” value ([2]; […] v/v Tween 80, 5 mg/mL, Carbonate buffer, pH 9.2 (25 mM Na), Initial) was “Cloudy”. The “Observations (physical appearance)” value ([2]; […] v/v Tween 80, 5 mg/mL, Carbonate buffer, pH 9.2 (25 mM Na), Overnight) was “Cloudy”, the “Observations (physical appearance)” value ([2]; […] v/v Tween 80, 5 mg/mL, Carbonate buffer, pH 9.5 (26.5 mM Na), 1 h) was “Cloudy” and the “Observations (physical appearance)” value ([2]; […] v/v Tween 80, 5 mg/mL, Carbonate buffer, pH 9.5 (26.5 mM Na), 2 h) was “Cloudy”. The “Observations (physical appearance)” value ([2]; […] v/v Tween 80, 5 mg/mL, Carbonate buffer, pH 9.5 (26.5 mM Na), 3 h) was “Cloudy”, the “Observations (physical appearance)” value ([2]; […] v/v Tween 80, 5 mg/mL, Carbonate buffer, pH 9.5 (26.5 mM Na), Initial) was “Cloudy” and the “Observations (physical appearance)” value ([2]; […] v/v Tween 80, 5 mg/mL, Carbonate buffer, pH 9.5 (26.5 mM Na), Overnight) was “Cloudy”. The “Observations (physical appearance)” value ([2]; […] v/v Tween 80, 5 mg/mL, Carbonate buffer, pH 9.5 ([…] Na), 1 h) was “Cloudy”, the “Observations (physical appearance)” value ([2]; […] v/v Tween 80, 5 mg/mL, Carbonate buffer, pH 9.5 ([…] Na), 2 h) was “Cloudy” and the “Observations (physical appearance)” value ([2]; […] v/v Tween 80, 5 mg/mL, Carbonate buffer, pH 9.5 ([…] Na), 3 h) was “Clear”. For the same molecule, the “Observations (physical appearance)” value ([2]; […] v/v Tween 80, 5 mg/mL, Carbonate buffer, pH 9.5 ([…] Na), Initial) was “Cloudy”, the “Observations (physical appearance)” value ([2]; […] v/v Tween 80, 5 mg/mL, Carbonate buffer, pH 9.5 ([…] Na), Overnight) was “Clear” and the “Observations (physical appearance)” value ([2]; […] v/v Tween 80, 5 mg/mL, Carbonate buffer, pH 10 (39 mM Na), 1 h) was “Cloudy”. The “Observations (physical appearance)” value ([2]; […] v/v Tween 80, 5 mg/mL, Carbonate buffer, pH 10 (39 mM Na), 2 h) was “Clear yellow”, the “Observations (physical appearance)” value ([2]; […] v/v Tween 80, 5 mg/mL, Carbonate buffer, pH 10 (39 mM Na), 3 h) was “Clear yellow” and the “Observations (physical appearance)” value ([2]; […] v/v Tween 80, 5 mg/mL, Carbonate buffer, pH 10 (39 mM Na), Initial) was “Cloudy”. The “Observations (physical appearance)” value ([2]; […] v/v Tween 80, 5 mg/mL, Carbonate buffer, pH 10 (39 mM Na), Overnight) was “Clear yellow”, the “Observations (physical appearance)” value ([2]; […] v/v Tween 80, 5 mg/mL, Carbonate buffer, pH 10 (155 mM Na), 1 h) was “Clear” and the “Observations (physical appearance)” value ([2]; […] v/v Tween 80, 5 mg/mL, Carbonate buffer, pH 10 (155 mM Na), 2 h) was “Clear yellow”. The “Observations (physical appearance)” value ([2]; […] v/v Tween 80, 5 mg/mL, Carbonate buffer, pH 10 (155 mM Na), 3 h) was “Clear yellow”, the “Observations (physical appearance)” value ([2]; […] v/v Tween 80, 5 mg/mL, Carbonate buffer, pH 10 (155 mM Na), Initial) was “Cloudy” and the “Observations (physical appearance)” value ([2]; […] v/v Tween 80, 5 mg/mL, Carbonate buffer, pH 10 (155 mM Na), Overnight) was “Clear yellow”. For the same molecule, the “Observations (physical appearance)” value ([2]; carbonate buffer pH 10 (39 mM Na), 1 mg/mL, 30 min) was “Cloudy”.

Source: patent publication US10828315B2 (Madrigal Pharmaceuticals, Inc., priority 2013, dated 2020)
